The record followed here is ChEMBL document CHEMBL2380283, “Design and synthesis of thiophene dihydroisoquinolines as novel BACE1 inhibitors” (Bioorg Med Chem Lett, 2013).

Where only a bound is given, the exact number is not on record here.

Series [1] has as its target T1, Beta-secretase 1 (Homo sapiens, UniProt P56817). The experiment in a line: Inhibition of BACE1 (unknown origin) by Alpha screen assay. (In Alpha technology, singlet oxygen from a donor bead excites a nearby acceptor bead.)
In series [2] the target is T1, Beta-secretase 1. The experiment in a line: Inhibition of recombinant BACE1 (unknown origin) expressed in Escherichia coli using biotinylated APP swidesh mutant as substrate incubated for 20 mins prior to substrate addition measured after 3 hrs by fluorescence polarization assay. On the technique in general: Polarisation of emitted light reports the rotation of a fluorescent probe.

A further series deals with Cathepsin D (Homo sapiens, UniProt P07339). The experiment in a line: Inhibition of cathepsin-D (unknown origin) after 110 mins by fluorescence polarization assay.
Sequence of Cathepsin D (P07339 65-162 limits assumed): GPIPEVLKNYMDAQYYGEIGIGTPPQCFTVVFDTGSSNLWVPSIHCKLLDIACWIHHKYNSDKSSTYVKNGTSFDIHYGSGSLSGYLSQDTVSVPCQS
Sequence of Cathepsin D (P07339 169-412 limits assumed): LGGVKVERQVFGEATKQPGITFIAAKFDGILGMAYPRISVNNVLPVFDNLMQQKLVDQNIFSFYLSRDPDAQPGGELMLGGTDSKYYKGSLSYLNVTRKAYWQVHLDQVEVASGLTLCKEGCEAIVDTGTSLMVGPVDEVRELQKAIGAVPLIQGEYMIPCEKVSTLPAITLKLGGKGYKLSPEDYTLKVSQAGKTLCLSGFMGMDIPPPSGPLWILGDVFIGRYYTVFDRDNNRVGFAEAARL
Series [3] is described as follows: Apparent permeability across apical to basolateral side in MDCK cells expressing MDR1 at 5 uM after 120 mins by LC/MS/MS analysis. It counts as ADME, cell-based, Canis lupus familiaris. The settings on record: dog.

T1 sequence (P56817 whole entry): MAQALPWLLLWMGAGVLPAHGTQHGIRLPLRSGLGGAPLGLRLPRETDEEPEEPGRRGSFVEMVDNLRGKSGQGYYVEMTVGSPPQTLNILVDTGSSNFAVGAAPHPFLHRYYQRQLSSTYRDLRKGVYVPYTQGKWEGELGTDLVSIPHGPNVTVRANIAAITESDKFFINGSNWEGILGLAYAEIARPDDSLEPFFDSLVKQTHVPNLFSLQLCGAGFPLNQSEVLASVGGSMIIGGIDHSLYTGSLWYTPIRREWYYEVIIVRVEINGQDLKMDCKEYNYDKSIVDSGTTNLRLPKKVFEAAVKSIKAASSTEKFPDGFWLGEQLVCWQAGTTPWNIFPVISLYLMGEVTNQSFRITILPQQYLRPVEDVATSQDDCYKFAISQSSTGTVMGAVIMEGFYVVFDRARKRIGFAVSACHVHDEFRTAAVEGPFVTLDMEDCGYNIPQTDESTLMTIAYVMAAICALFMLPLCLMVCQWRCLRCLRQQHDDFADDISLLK

One may read the IC50 as the concentration at which inhibition is half-maximal. As to `CC#Cc1cscc1CC(NC1=NC(C)(C)Cc2cc(Cl)ccc21)C(=O)O` (stereo not drawn), the IC50 against Beta-secretase 1 [1] was determined as 0.51 µM. `CC1(C)Cc2cc(Cl)ccc2C(NC(Cc2cscc2-c2cc[nH]n2)C(=O)O)=N1` (stereo not drawn) showed an IC50 against Beta-secretase 1 [1] of 1.26 µM. Still for that read-out and setting: as for `CC1(C)Cc2cc(Cl)ccc2C(NC(Cc2cscc2-c2ccncc2)C(=O)O)=N1` (stereo not drawn), the figure is 1.85 µM; as for `CC1(C)Cc2cc(Cl)ccc2C(NC(Cc2ccsc2Br)C(=O)O)=N1` (stereo not drawn), 9.5 µM. Same read-out and setting: with `CC1(C)Cc2cc(Cl)ccc2C(NC(Cc2ccsc2)C(=O)O)=N1` (stereo not drawn) the figure was 2.9 µM. `CC1(C)Cc2cc(Cl)ccc2C(N[C@H](Cc2ccccc2)C(=O)O)=N1` showed an IC50 against Beta-secretase 1 [1] of 264 µM. With `CCCc1scc(-c2cn[nH]c2)c1CC(NC1=NC(C)(C)Cc2cc(Cl)ccc21)C(=O)O` (stereo not drawn), the IC50 is 0.4 µM on Beta-secretase 1 [2], 0.008 µM at Beta-secretase 1 [1] and more than 30 µM at Cathepsin D. As for `CC1(C)Cc2cc(Cl)ccc2C(NC(Cc2cscc2-c2ncco2)C(=O)O)=N1` (stereo not drawn), the IC50 against Beta-secretase 1 [1] is 0.82 µM. On to `CC1(C)Cc2cc(Cl)ccc2C(NC(Cc2cscc2C2CC2)C(=O)O)=N1` (stereo not drawn), for which half-maximal inhibition on Beta-secretase 1 [1] (IC50) was put at 2.43 µM. At Beta-secretase 1 [1], `Cn1cc(-c2cscc2CC(NC2=NC(C)(C)Cc3cc(Cl)ccc32)C(=O)O)cn1` (stereo not drawn) displayed a half-maximal inhibitory concentration (IC50) of 1.09 µM. At Beta-secretase 1 [1], `CC1(C)Cc2cc(Cl)ccc2C(NC(Cc2cscc2-c2cn[nH]c2)C(=O)O)=N1` (stereo not drawn) displayed an IC50 of 0.45 µM. Take `CC1(C)Cc2cc(Cl)ccc2C(NC(Cc2cscc2CCC2CC2)C(=O)O)=N1` (stereo not drawn): on Beta-secretase 1 [1], the IC50 was determined as 0.57 µM. Still for that read-out and setting: with `CC1(C)Cc2cc(Cl)ccc2C(NC(Cc2sccc2Br)C(=O)O)=N1` (stereo not drawn) the figure was 0.71 µM; with `CC1(C)Cc2cc(Cl)ccc2C(NC(Cc2cscc2Br)C(=O)O)=N1` (stereo not drawn), 0.31 µM.

Compound `CCc1cscc1CC(NC1=NC(C)(C)Cc2cc(Cl)ccc21)C(=O)O` (stereo not drawn) showed an IC50 on Beta-secretase 1 [1] of 0.63 µM. For `C#Cc1cscc1CC(NC1=NC(C)(C)Cc2cc(Cl)ccc21)C(=O)O` (stereo not drawn), the IC50 against Beta-secretase 1 [1] came out at 0.76 µM. Broadly, the Papp A→B is the apparent permeability from the apical to the basolateral side of a cell layer. As for `CCCc1scc(-c2cn[nH]c2)c1CC(NC1=NC(C)(C)Cc2cc(Cl)ccc21)c1nccc(=O)[nH]1` (stereo not drawn), the Papp A→B at 2 h, 5 µM in series [3] was 10 ×10⁻⁶ cm/s. Further, the IC50 at Beta-secretase 1 [2] was 40 µM; at Beta-secretase 1 [1], 0.406 µM; against Cathepsin D, more than 30 µM. `CCCc1cscc1CC(NC1=NC(C)(C)Cc2cc(Cl)ccc21)C(=O)O` (stereo not drawn) returned an IC50 against Beta-secretase 1 [1] of 0.61 µM.
